Laboratory results taken from paper PMC10643673, “An immunomodulating peptide with potential to suppress tumour growth and autoimmunity” (Scientific Reports, 2023).
Where a SMILES comes first, the peptide text is derived from it. [ ]: non-standard residue; d: D form. Gly(decyl) = CCCCCCCCCC[C@H](N)C(=O)O

Experiments:
[1] = tested on: Lewis lung cancer (LLC) cells; assay: Cancer cell proliferation assay (SRB); type: cell-based, mouse; details: 72 h, doxorubicin 2.5 µM, positive control
Procedure: Lewis lung cancer (LLC) cells (sourced from the American Type Culture Collection) were seeded into 96-well plates (1000 cells/well) in complete cell culture medium and allowed to attach for 24 h (37 °C, 5% CO2 in air). Next, an equal volume of either cell culture medium only, or 2 × concentration of drug dissolved in cell culture medium, was added to each of 5 replicate wells (technical replicates) to expose cells to concentrations of IK14004 in the dose range from 0 to 5 µM. Cells were cultured for 72 h in the presence of either IK14004 or Doxorubicin (2.5 µM; positive control) and then the cell culture medium was removed and the attached cells fixed in ice-cold trichloroacetic acid. Fixed cells were stained with Sulforhodamine B (SRB) and then washed with 1% acetic acid to remove unbound dye. The retained dye was solubilised in 10 mM Tris base solution and the absorbance at 550 nm was measured with the baseline (media only without cells) subtracted. The data were normalised between the maximum proliferation (100%, cells with no drug) and the starting cell density (0%, cells before addition of drug). Each experiment was performed on two independent occasions (biological replicates).

[2] = tested on: exhausted CD4+ T cells derived from MBP-tracker mouse splenocytes; assay: Murine splenocyte-derived exhausted CD4+ T cell assay; type: cell-based; details: highest concentration 1.25 µM
Procedure: Concept Life Sciences have established a proprietary method for assessing murine CD4+ T cell exhaustion in vitro using Tg4-Ly5.1 MBP-Tracker Mice obtained from the University of Edinburgh. Spleens were removed from transgenic B10PLxC57BL/6 mice and processed to generate a single cell suspension of splenocytes. Myelin basic protein (MBP)-Tracker splenocytes were resuspended at 3 × 10^6/mL and stimulated 72 h at approximately 37 °C, 5% CO2, with altered peptide ligand (APL)-MBP (to generate exhausted cells). Following stimulation, T cells were purified by Ficoll density gradient, and subsequently re-plated at 2 × 10^6/mL in 20 U/mL IL-2 for four days. At the end of this rest period, cells were resuspended (4 × 10^5/mL, final 2 × 10^4 per well) and restimulated using irradiated APCs (from B10PLxC57BL/6 mice, 4 × 10^6/mL, final concentration of 2 × 10^5 cells per well) plus a single dose of APL-MBP peptide together with IK14004 peptide for 72 h.
Supernatants were sampled from culture wells for assessment of IL-2 and IFN-γ by ELISA (eBioScience, Lot # 4280695 and Lot #. 4308729, respectively) and flow cytometry used for assessment of CD25 and Ki67 (eBioScience, Lot # 4276862 and Lot # 4296884, respectively). Anti-PD-1 and IgG2a antibodies were obtained from BioXCell.

[3] = tested on: splenocyte-derived CD4+ T cells and NK cells; details: mouse, in vivo
Procedure: LLC cells sourced from ATCC. The Lewis lung cancer cell line was cultured to approximately 70% confluency before cells were collected and resuspended at 5 × 10^6 /mL in sterile HBSS. […] were injected subcutaneously with 5 × 10^5 cells (100 µL) into the right flank. Mice were randomly assigned to treatment groups 5 days after tumour cell implantation such that the average tumour size was approximately equal between the two groups. Test substance IK14004 or vehicle were administered twice weekly (Monday and Thursday) via intraperitoneal (i.p.) injections, from day 5 post tumour cell implantation, until the tumours reached an average of 10 mm in diameter in the vehicle treated group. Tumours were measured three times each week using digital callipers and once the mean tumour size for the vehicle group reached 10 mm in diameter, mice were sacrificed by cervical dislocation and tumour and spleens collected. Spleens were processed into single cell suspensions and the red blood cells lysed. Fresh splenocyte suspensions were assessed by trypan blue exclusion. From fresh splenocyte suspensions, 1 × 10^6 viable cells were stained using a viability dye (Flexible Viability Dye eFluorTM 780; ThermoFisher), CD4 (BV605), NK1.1 (BV510), CD25 (AF488), IL-12Rβ1 (PE) and IL-12Rβ2 (APC) for flow cytometry.

[4] = tested on: splenocytes / CD4+ T cells; assay: Splenocytes from LLC lung metastasis model, fresh or cultured overnight with/without TCR stimulation; type: in vivo, mouse; details: peptide- vs vehicle-treated mice; after 24 h
Procedure: Spleens were collected and processed into a single cell suspension. Fresh splenocytes were assessed by means of flow cytometry with CD28 (BV421) and 2 × 10^5 cells per well were then cultured overnight with or without TCR stimulation (anti-CD3 alone or in combination with anti-CD28 both at 2 µg/mL, plate bound overnight in PBS at 4 °C). After overnight culture cell free supernatants were collected and assessed for IFN-γ and IL-2 by ELISA (eBioscience Kits) and set up in technical triplicate. Cells before and after stimulation were stained for flow cytometry (viability, CD4, CD28 (BV711), IL-12Rβ1 and IL-12Rβ2.

[5] = tested on: K562 erythroleukemic cells; assay: K562/PBMC co-culture cytotoxicity assay (Calcein AM release); details: PBMCs exposed to peptide 48 h, then 4 h co-culture at 5:1 ratio; 0.08 to 1.25 µM
Procedure: Human PBMCs (2.5 × 10^5 cells per well) were cultured in 96-well round-bottom tissue culture plates for 48 h at 37 °C, 5% CO2 in the presence of IK14004 and IKD14004 peptides. After peptide exposure, PBMCs were co-cultured with Calcein AM stained K562 cells (5 × 10^4/well) at a 5:1 ratio for 4 h at 37 °C, 5% CO2. For spontaneous release control Calcein AM-K562 cells alone were treated with PBS (20 µL). For maximal release control Calcein AM-K562 cells alone were treated with lysis buffer (20 µL). After 4 h culture, 150 µL supernatant were transferred to black wall plates and intensity of Calcein green fluorescence release detected using GloMax® Discover to determine percentage of specific cytotoxicity.

human NK cells = assay: Isolated CD3−/CD56+dim NK cell cultures, flow cytometry; type: cell-based; details: 24 h; all concentrations
Procedure: CD3−/CD56+^dim NK cell populations were isolated from PBMCs using immuno-magnetic separation (Stem cell, Lot no. 18A86421). CD56^+ NK cells were resuspended in RPMI-10 (RPMI-1640 supplemented with 10% heat inactivated FBS, 100 U/mL penicillin, 100 µg/mL streptomycin, 2 mM L-glutamine, and 50 µM β-mercaptoethanol) at 0.25 × 10^6/mL and plated at a density of 2.5 × 10^4 per well (100 µL) in 96-well, flat bottom culture plates. Purified NK cells were cultured together with either IK14004 or recombinant IL-2 (InVitrogen, Lot #223086-011) for […] at 37 °C, 5% CO2.
(§1) Staining was performed to determine cell viability (Flexible Viability Dye eFluorTM 780; ThermoFisher) and expression of extracellular/intracellular markers assessed using fluorescently-labelled antibodies against human proteins within different cell populations. […] After 24 h cells were collected and CD4+ and CD8+ T cells assessed for TCRα/β expression (PE; BioLegend). Phospho-STAT4 in was assessed in TCR-activated CD3 + T cell and PBMC cultures. […] Cells were then stained with fluorochrome conjugated anti-pSTAT4 antibody (eBioscience, Lot# 12-9044) and intracellular expression determined within CD8+ T cells by flow cytometry. Similarly, anti-CD3-stimulated PBMC cultures were exposed only to recombinant IL-12p70 (Peprotech, Lot #0617596) and pSTAT4 assessed within CD4+ /CD8+ T cell fractions. […]

[6] = tested on: human PBMCs (CD4+/CD8+ T cells, NK cells); assay: Anti-CD3-stimulated human PBMC cultures, flow cytometry/ELISA; type: cell-based; details: rIL-12p70 10 ng/mL; 72 h
Procedure: Preparations of peripheral blood mononuclear cells (PBMCs) and isolated T cells from buffy coat samples were performed using SepMate tubes, EasySep selection and enrichment kits, Lymphoprep, RoboSep Buffer, and EasySep magnets (STEMCELL Company). PBMCs were resuspended in RPMI-10 (RPMI-1640; ThermoFisher) supplemented with 10% heat inactivated Foetal Bovine Serum (LabTech), 100 U/mL penicillin, 100 µg/mL streptomycin (ThermoFisher), 2 mM L-glutamine (ThermoFisher), and 50 µM β-mercaptoethanol (ThermoFisher) at 1 × 10^6 cells/mL and plated at a density of 1 × 10^5 per well (100 µL) in 96-well, flat-bottom culture plates. […]
as §1, with “[…] Flow cytometry data” for “Similarly, anti-CD3-stimulated PBMC cultures”, “exported as FCS files from Attune™ NxT software” for “exposed only to recombinant IL-12p70 (Peprotech, Lot #0617596)”, “analysed using FlowJo™ software.” for “pSTAT4 assessed within CD4+ /CD8+ T cell fractions.”

## COc1cccc2c1C(=O)c1c(O)c3c(c(O)c1C2=O)C[C@@](O)(C(=O)CO)C[C@@H]3O[C@H]1C[C@H](N)[C@H](O)[C@H](C)O1 [doxorubicin]
[1]
  proliferation of the LLC cell line: total cell kill

## CCCCCCCCCC[C@H](NC(=O)[C@H](CCCCCCCCCC)NC(=O)[C@H](CCCCCCCCCC)NC(=O)[C@H](CCCCCCCCCC)NC(=O)[C@H](CCCNC(=N)N)NC(=O)[C@H](Cc1ccc(O)cc1)NC(=O)[C@H](CC(C)C)NC(=O)[C@@H]1CCCN1C(=O)[C@H](CC(N)=O)NC(=O)[C@H](CCCCN)NC(=O)[C@H](C)NC(=O)[C@H](CCCCN)NC(=O)[C@H](CO)NC(=O)[C@@H](N)CCCNC(=N)N)C(N)=O [IK14004, RSKAKNPLYR-(2)Adod-(2)Adod-(2)Adod-(2)Adod-amide] (H-RSKAKNPLYR[Gly(decyl)][Gly(decyl)][Gly(decyl)][Gly(decyl)]-NH2)
[2]
  visual signs of cell death at end of splenocyte culture: no visual signs of cell death
[3]
  viability of freshly harvested splenocytes: ~100%
[4]
  viability of cultured splenocytes: no differences
[5]
  significant K562 cytotoxicity: at most concentrations
Human NK cells
  percentage of viable NK cells: remained unchanged

B1: rIL-12p70: recombinant IL-12p70 (Peprotech), 10 ng/mL (protein, UniProt P29459 23-219; P29460 23-328, looked up)
Interleukin-12 subunit alpha: RNLPVATPDPGMFPCLHHSQNLLRAVSNMLQKARQTLEFYPCTSEEIDHEDITKDKTSTVEACLPLELTKNESCLNSRETSFITNGSCLASRKTSFMMALCLSSIYEDLKMYQVEFKTMNAKLLMDPKRQIFLDQNMLAVIDELMQALNFNSETVPQKSSLEEPDFYKTKIKLCILLHAFRIRAVTIDRVMSYLNAS
Interleukin-12 subunit beta: IWELKKDVYVVELDWYPDAPGEMVVLTCDTPEEDGITWTLDQSSEVLGSGKTLTIQVKEFGDAGQYTCHKGGEVLSHSLLLLHKKEDGIWSTDILKDQKEPKNKTFLRCEAKNYSGRFTCWWLTTISTDLTFSVKSSRGSSDPQGVTCGAATLSAERVRGDNKEYEYSVECQEDSACPAAEESLPIEVMVDAVHKLKYENYTSSFFIRDIIKPDPPKNLQLKPLKNSRQVEVSWEYPDTWSTPHSYFSLTFCVQVQGKSKREKKDRVFTDKTSATVICRKNASISVRAQDRYYSSSWSEWASVPCS
[6]
  percentage of pSTAT4-expressing CD8+ T cells: as did the percentage of pSTAT4-expressing CD8+ T cells
  proportion of pSTAT4-expressing CD4+ T cells: increased
